For the data set the following is noted: Liquid, Ebulliometric method (Recirculating still).

± gives the expanded uncertainty stated by the source.

In general, vapor or sublimation pressure refers to the pressure of vapour in equilibrium with the condensed phase. With `COC` [dimethyl ether], the “vapor or sublimation pressure” value by setting is: (283.15 K) 372 ± 10 kPa; (293.15 K) 501 ± 10 kPa; (303.15 K) 687 ± 10 kPa; (313.15 K) 898 ± 10 kPa; (323.15 K) 1116.2 ± 10 kPa.
As to `CI` [iodomethane], the “vapor or sublimation pressure” value turned out to be 30 ± 10 kPa (283.15 K); 47.5 ± 10 kPa (293.15 K); 69.9 ± 10 kPa (303.15 K); 95 ± 10 kPa (313.15 K); 129 ± 10 kPa (323.15 K).

The values above are taken from the NIST ThermoML archive (doi:10.1016/j.fluid.2014.06.029).
